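Compound exposure: 48 hours, 5 concentrations, 96-well plates. TGI: total growth inhibition.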
How the values were obtained:
Test in all cases: NCI anticancer screen, dose series, 48 h
SNB-19 CNS = tested on: SNB-19 CNS
SK-MEL-5 melanoma = tested on: SK-MEL-5 melanoma
OVCAR-8 ovarian = tested on: OVCAR-8 ovarian
K-562 leukemia = tested on: K-562 leukemia
UACC-257 melanoma = tested on: UACC-257 melanoma
NCI-H522 lung = tested on: NCI-H522 lung
BT-549 breast = tested on: BT-549 breast
MDA-N = tested on: MDA-N
ACHN renal = tested on: ACHN renal
SF-295 CNS = tested on: SF-295 CNS
RXF 393 renal = tested on: RXF 393 renal
NCI-H23 lung = tested on: NCI-H23 lung
SK-MEL-28 melanoma = tested on: SK-MEL-28 melanoma
IGROV1 ovarian = tested on: IGROV1 ovarian
OVCAR-4 ovarian = tested on: OVCAR-4 ovarian
SN12C renal = tested on: SN12C renal
SW-620 colon = tested on: SW-620 colon
HL-60(TB) leukemia = tested on: HL-60(TB) leukemia
TK-10 renal = tested on: TK-10 renal
COLO 205 colon = tested on: COLO 205 colon
HS 578T breast = tested on: HS 578T breast
T-47D breast = tested on: T-47D breast
LOX IMVI melanoma = tested on: LOX IMVI melanoma
HOP-92 NSCLC = tested on: HOP-92 NSCLC
MOLT-4 leukemia = tested on: MOLT-4 leukemia
MDA-MB-435 = tested on: MDA-MB-435
A549 NSCLC = tested on: A549 NSCLC
M14 melanoma = tested on: M14 melanoma
SR leukemia = tested on: SR leukemia
HCT-116 colon = tested on: HCT-116 colon
HOP-62 NSCLC = tested on: HOP-62 NSCLC
SF-268 CNS = tested on: SF-268 CNS
MCF7 breast = tested on: MCF7 breast
SF-539 CNS = tested on: SF-539 CNS
EKVX NSCLC = tested on: EKVX NSCLC
U251 CNS = tested on: U251 CNS
NCI/ADR-RES ovarian = tested on: NCI/ADR-RES ovarian
MDA-MB-231 breast = tested on: MDA-MB-231 breast
DU-145 prostate = tested on: DU-145 prostate
UO-31 renal = tested on: UO-31 renal
KM12 colon = tested on: KM12 colon
HCT-15 colon = tested on: HCT-15 colon
A498 renal = tested on: A498 renal
HCC-2998 colon = tested on: HCC-2998 colon
CCRF-CEM leukemia = tested on: CCRF-CEM leukemia
UACC-62 melanoma = tested on: UACC-62 melanoma
PC-3 prostate = tested on: PC-3 prostate
SNB-75 CNS = tested on: SNB-75 CNS
HT29 colon = tested on: HT29 colon
CAKI-1 renal = tested on: CAKI-1 renal
OVCAR-5 ovarian = tested on: OVCAR-5 ovarian
SK-MEL-2 melanoma = tested on: SK-MEL-2 melanoma
OVCAR-3 ovarian = tested on: OVCAR-3 ovarian
786-0 renal = tested on: 786-0 renal
NCI-H460 lung = tested on: NCI-H460 lung
SK-OV-3 ovarian = tested on: SK-OV-3 ovarian
RPMI-8226 leukemia = tested on: RPMI-8226 leukemia
NCI-H226 lung = tested on: NCI-H226 lung
MALME-3M melanoma = tested on: MALME-3M melanoma

With `Nc1c(Cl)ncnc1N[C@@H]1C[C@H]1CO` the TGI (SNB-19 CNS) was greater than 100 µM, the TGI (SK-MEL-5 melanoma) was greater than 100 µM and the TGI (OVCAR-8 ovarian) was greater than 100 µM. The TGI (K-562 leukemia) was greater than 100 µM, the TGI (UACC-257 melanoma) was greater than 100 µM and the TGI (NCI-H522 lung) was greater than 100 µM. For the same compound, the TGI (BT-549 breast) was greater than 100 µM, the TGI (MDA-N) was greater than 100 µM and the TGI (ACHN renal) was greater than 100 µM. It also gave a TGI (SF-295 CNS) greater than 100 µM, a TGI (RXF 393 renal) greater than 100 µM and a TGI (NCI-H23 lung) greater than 100 µM. The TGI (SK-MEL-28 melanoma) was greater than 100 µM, the TGI (IGROV1 ovarian) was greater than 100 µM and the TGI (OVCAR-4 ovarian) was greater than 100 µM. For the same compound, the TGI (SN12C renal) was greater than 100 µM, the TGI (SW-620 colon) was greater than 100 µM and the TGI (HL-60(TB) leukemia) was greater than 100 µM. The TGI (TK-10 renal) was greater than 100 µM, the TGI (COLO 205 colon) was greater than 100 µM and the TGI (HS 578T breast) was greater than 100 µM. For the same compound, the TGI (T-47D breast) was greater than 100 µM, the TGI (LOX IMVI melanoma) was greater than 100 µM and the TGI (HOP-92 NSCLC) was greater than 100 µM. For the same compound, the TGI (MOLT-4 leukemia) was greater than 100 µM, the TGI (MDA-MB-435) was greater than 100 µM and the TGI (A549 NSCLC) was greater than 100 µM. The TGI (M14 melanoma) was greater than 100 µM, the TGI (SR leukemia) was greater than 100 µM and the TGI (HCT-116 colon) was greater than 100 µM. For the same compound, the TGI (HOP-62 NSCLC) was greater than 100 µM, the TGI (SF-268 CNS) was greater than 100 µM and the TGI (MCF7 breast) was greater than 100 µM. For the same compound, the TGI (SF-539 CNS) was greater than 100 µM, the TGI (EKVX NSCLC) was greater than 100 µM and the TGI (U251 CNS) was greater than 100 µM. For the same compound, the TGI (NCI/ADR-RES ovarian) was greater than 100 µM, the TGI (MDA-MB-231 breast) was greater than 100 µM and the TGI (DU-145 prostate) was greater than 100 µM. The TGI (UO-31 renal) was greater than 100 µM, the TGI (KM12 colon) was greater than 100 µM and the TGI (HCT-15 colon) was greater than 100 µM. For the same compound, the TGI (A498 renal) was greater than 100 µM, the TGI (HCC-2998 colon) was greater than 100 µM and the TGI (CCRF-CEM leukemia) was greater than 100 µM. The TGI (UACC-62 melanoma) was greater than 100 µM, the TGI (PC-3 prostate) was greater than 100 µM and the TGI (SNB-75 CNS) was greater than 100 µM. For the same compound, the TGI (HT29 colon) was greater than 100 µM, the TGI (CAKI-1 renal) was greater than 100 µM and the TGI (OVCAR-5 ovarian) was greater than 100 µM. The TGI (SK-MEL-2 melanoma) was greater than 100 µM, the TGI (OVCAR-3 ovarian) was greater than 100 µM and the TGI (786-0 renal) was greater than 100 µM. The TGI (NCI-H460 lung) was greater than 100 µM.

With `NP(=O)(OCC1=CC(=O)c2ccccc2C1=O)N(CCBr)CCBr` (stereo not given) the TGI (SNB-19 CNS) was greater than 55.1 µM, the TGI (SK-MEL-5 melanoma) was 3.21 µM and the TGI (OVCAR-8 ovarian) was 37.2 µM. For the same compound, the TGI (K-562 leukemia) was greater than 100 µM, the TGI (UACC-257 melanoma) was 4.21 µM and the TGI (NCI-H522 lung) was 10.9 µM. The TGI (MDA-N) was 3.66 µM, the TGI (ACHN renal) was 15.7 µM and the TGI (SF-295 CNS) was 25.2 µM. For the same compound, the TGI (RXF 393 renal) was 21.8 µM, the TGI (NCI-H23 lung) was 14.2 µM and the TGI (SK-MEL-28 melanoma) was 11.7 µM. For the same compound, the TGI (IGROV1 ovarian) was 38.3 µM, the TGI (OVCAR-4 ovarian) was 31.6 µM and the TGI (SN12C renal) was 33.9 µM. The TGI (SW-620 colon) was greater than 34.2 µM, the TGI (HL-60(TB) leukemia) was greater than 100 µM and the TGI (TK-10 renal) was 33.1 µM. For the same compound, the TGI (COLO 205 colon) was greater than 21.1 µM, the TGI (SK-OV-3 ovarian) was 30.9 µM and the TGI (HS 578T breast) was 90.7 µM. The TGI (T-47D breast) was 29.7 µM, the TGI (LOX IMVI melanoma) was 29.1 µM and the TGI (HOP-92 NSCLC) was 31.5 µM. It also gave a TGI (MOLT-4 leukemia) of 10.8 µM, a TGI (MDA-MB-435) of 4.74 µM and a TGI (A549 NSCLC) of 26.5 µM. For the same compound, the TGI (SR leukemia) was 9.75 µM, the TGI (HCT-116 colon) was greater than 45.1 µM and the TGI (SF-268 CNS) was 26.7 µM. For the same compound, the TGI (MCF7 breast) was greater than 40.9 µM, the TGI (RPMI-8226 leukemia) was greater than 67.3 µM and the TGI (SF-539 CNS) was 18.7 µM. The TGI (EKVX NSCLC) was 34.6 µM, the TGI (U251 CNS) was 28.7 µM and the TGI (NCI/ADR-RES ovarian) was greater than 73.4 µM. It also gave a TGI (MDA-MB-231 breast) of 27.2 µM, a TGI (DU-145 prostate) of 18.1 µM and a TGI (NCI-H226 lung) of 25.8 µM. The TGI (UO-31 renal) was 24.1 µM, the TGI (KM12 colon) was 25 µM and the TGI (HCT-15 colon) was 20.1 µM. It also gave a TGI (A498 renal) of 39.3 µM, a TGI (HCC-2998 colon) of 34.3 µM and a TGI (MALME-3M melanoma) of 4.6 µM. The TGI (CCRF-CEM leukemia) was greater than 100 µM, the TGI (UACC-62 melanoma) was 5.3 µM and the TGI (PC-3 prostate) was 46 µM. It also gave a TGI (SNB-75 CNS) greater than 35.8 µM, a TGI (HT29 colon) of 34.9 µM and a TGI (CAKI-1 renal) of 8.1 µM. The TGI (OVCAR-5 ovarian) was 45.1 µM, the TGI (SK-MEL-2 melanoma) was 25.3 µM and the TGI (OVCAR-3 ovarian) was greater than 25.6 µM. The TGI (786-0 renal) was 28.6 µM and the TGI (NCI-H460 lung) was 16 µM.

`COC(=O)C1=CC(=O)OC1(OO)c1ccccc1` (stereo not given) was tested, and the TGI (SNB-19 CNS) was greater than 100 µM, the TGI (SK-MEL-5 melanoma) was greater than 100 µM and the TGI (OVCAR-8 ovarian) was greater than 100 µM. It also gave a TGI (K-562 leukemia) greater than 100 µM, a TGI (UACC-257 melanoma) greater than 100 µM and a TGI (NCI-H522 lung) greater than 100 µM. The TGI (BT-549 breast) was greater than 100 µM, the TGI (MDA-N) was greater than 100 µM and the TGI (ACHN renal) was greater than 100 µM. For the same compound, the TGI (SF-295 CNS) was greater than 100 µM, the TGI (RXF 393 renal) was greater than 100 µM and the TGI (NCI-H23 lung) was greater than 100 µM. It also gave a TGI (SK-MEL-28 melanoma) greater than 100 µM, a TGI (IGROV1 ovarian) greater than 100 µM and a TGI (OVCAR-4 ovarian) greater than 100 µM. For the same compound, the TGI (SN12C renal) was greater than 100 µM, the TGI (SW-620 colon) was greater than 100 µM and the TGI (HL-60(TB) leukemia) was 20.4 µM. It also gave a TGI (TK-10 renal) greater than 100 µM, a TGI (COLO 205 colon) greater than 100 µM and a TGI (SK-OV-3 ovarian) greater than 100 µM. For the same compound, the TGI (T-47D breast) was greater than 100 µM, the TGI (LOX IMVI melanoma) was greater than 100 µM and the TGI (HOP-92 NSCLC) was greater than 100 µM. It also gave a TGI (MOLT-4 leukemia) greater than 100 µM, a TGI (MDA-MB-435) greater than 100 µM and a TGI (A549 NSCLC) greater than 100 µM. The TGI (M14 melanoma) was greater than 100 µM, the TGI (SR leukemia) was greater than 100 µM and the TGI (HCT-116 colon) was greater than 100 µM. For the same compound, the TGI (MCF7 breast) was greater than 100 µM, the TGI (SF-539 CNS) was greater than 100 µM and the TGI (EKVX NSCLC) was greater than 100 µM. The TGI (U251 CNS) was greater than 100 µM, the TGI (NCI/ADR-RES ovarian) was greater than 100 µM and the TGI (MDA-MB-231 breast) was greater than 100 µM. For the same compound, the TGI (DU-145 prostate) was greater than 100 µM, the TGI (NCI-H226 lung) was greater than 100 µM and the TGI (UO-31 renal) was greater than 100 µM. For the same compound, the TGI (KM12 colon) was greater than 100 µM, the TGI (HCT-15 colon) was greater than 100 µM and the TGI (HCC-2998 colon) was greater than 100 µM. It also gave a TGI (MALME-3M melanoma) greater than 100 µM, a TGI (CCRF-CEM leukemia) of 51.1 µM and a TGI (UACC-62 melanoma) greater than 100 µM. It also gave a TGI (PC-3 prostate) greater than 100 µM, a TGI (SNB-75 CNS) greater than 100 µM and a TGI (HT29 colon) greater than 100 µM. For the same compound, the TGI (CAKI-1 renal) was greater than 100 µM, the TGI (OVCAR-5 ovarian) was greater than 100 µM and the TGI (SK-MEL-2 melanoma) was greater than 100 µM. The TGI (OVCAR-3 ovarian) was greater than 100 µM, the TGI (786-0 renal) was greater than 100 µM and the TGI (NCI-H460 lung) was greater than 100 µM.
